Data taken from patent publication US5668116A, “Anti-inflammatory compounds and compositions” (Anthropharm Pty. Limited, priority 1987, dated 1997).
“And” between values parts separate entries of the source, which are not always exact repeats. Equal values may be shown once.

Columns and labels:
[1] = tested on: mature rabbit articular cartilage; conditions: 8 week intra-articular treatment
[2] = tested on: human synovial fibroblasts (line derived from OA joints); assay: In vitro biosynthesis of hyaluronic acid by synovial fibroblasts; type: cell-based; conditions: for in vitro biosynthesis of hyaluronic acid (HA): FIG. 1, 2, 17
[3] = biological target: T1, human granulocyte elastase (HGE) (Homo sapiens, UniProt P08246); assay: Inhibition of human granulocyte elastase (HGE), SAAVNA substrate; type: biochemical
T1 construct: HGE prepared according to the method of Andrews et al; from tissue
T1 sequence (P08246 30-247 limits assumed): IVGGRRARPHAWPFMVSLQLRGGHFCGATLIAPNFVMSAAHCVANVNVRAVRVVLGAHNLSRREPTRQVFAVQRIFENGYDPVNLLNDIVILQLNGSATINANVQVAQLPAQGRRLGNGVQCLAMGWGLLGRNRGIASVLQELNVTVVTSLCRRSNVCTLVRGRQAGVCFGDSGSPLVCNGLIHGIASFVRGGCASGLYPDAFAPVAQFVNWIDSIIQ
Excerpt: (a) HGE prepared according to the method of Andrews et al (Chem. Biological Int. 47, 157, 1983) was used to degrade
the synthetic specific substrate for this enzyme-(succinyl-dialanyl-valyl nitroanalide (SAAVNA)).
In these experiments the inhibitory activity of DH40J, PPS as SP54® and mixtures of SP54® and ZnSO4 in various proportions against HGE using the same condition as in (a), except that a different enzyme preparation was used, were investigated. […] A variety of ratios of Zn^+ to SP54® were tested for their ability to inhibit the HGE.

[4] = tested on: articular cartilages implanted in rat air pouches; assay: Rat air pouch model, loss of proteoglycans from implanted articular cartilage; type: in vivo; conditions: 10 mg/kg/day into the air pouch for seven days, peptone inflammation; FIG. 12
Protocol: This model was originally described by Sin, M. Y., et al J. Path. 141, 23 (1984) and Sedgwick A. D. et al Ann. Rheum. Dis. 43, 418 (1984) and provides a convenient and reproducable method of evaluating the effects of drugs on cartilage metabolism in vivo. This model was used to investigate the influence of SP54® and DH40J when administered into the rat air pouch at 10 mg/kg on the loss of cartilage proteoglycans (PGs) induced by an inflammatory cell invasion of the pouch.
Air pouches were created on the dorsal surface of male 200 gm Wistar rats by the initial injection of 20 ml of sterile air. Re-injection every second day maintained cavity inflation. Articular cartilage (AC) aseptically harvested from the knee joints of 10 week old New Zealand White rabbits, was implanted into formed 7 day old rat air pouches. Drugs (10 mg/kg), diluted in saline, were administered daily into the air pouch beginning the day of cartilage implantation. Saline was administered to a control group. Inflammation of the air pouch was achieved by the injection of 10 ml of sterile 3% peptone into the pouch every second day, beginning the day of cartilage implantation. […] Cells in the APF were stained with crystal violet and a total cell count determined. […] Implanted AC (8-10 mgs) was digested by papain and PG content was determined by hexuronic acid and sulphated glycosaminoglycan (GAG) analysis. […]

[5] = in vitro; Arch. Int. Pharmacodyn. Ther. 282, 196-208 (1986); cited from earlier work
[6] = Table 7, different enzyme preparation, single inhibitor

## C[C@]12CCC(=O)C=C1CC[C@@H]1[C@@H]2[C@@H](O)C[C@@]2(C)[C@H]1CC[C@]2(O)C(=O)CO [Cortisone, hydrocortisone]
[1]; individual joints
  4M Gu HCl,PG Extractability: 53.2% and 57.6% and 56.8% and 51.5%
  35S-PG Specific (activity): 896.8 DPM/ug UA and 866.6 DPM/ug UA and 1061.4 DPM/ug UA and 854.2 DPM/ug UA
[1]; individual joints, hydrocortisone 50 mg, pentosan polysulphate 5 mg
  Hexuronic Acid(UA): 27.4 ug/mg dry wt. and 23.2 ug/mg dry wt. and 20.0 ug/mg dry wt. and 21.8 ug/mg dry wt.
[1]; n = 4 joints
  4M Gu HCl,PG Extractability Mean ± SD: 54.7 ± 2.9%
  35S-PG Specific (activity) Mean ± SD: 919.7 ± 96.1 DPM/ug UA
  Hexuronic Acid(UA) Mean ± SD: 23.1 ± 3.1 ug/mg dry wt.
[2]
  in vitro biosynthesis of hyaluronic acid (HA): progressively inhibited

## O=S(=O)([O-])[O-].[Zn+2] [ZnSO4, zinc sulphate]
[3]; [6]
  IC50 (HGE inhibition): 10 µg/mL

## pentosan polysulphate sodium salt [SP54]
[4]
  loss of proteoglycans (uronic acid) from implanted articular cartilage: equally effective in preventing the loss of proteoglycans
[5]
  improving proteoglycan incorporation into the extracellular matrix: active in vitro in improving proteoglycan incorporation into the extracellular matrix
[3]; Table 6, 1 μg HGE/ml, 0.2 mM SAAVNA, pH 7.4, 37° C.
  IC50 (HGE inhibition): 0.249 µg/mL
[3]; [6]
  IC50 (HGE inhibition): 0.381 µg/mL
[3]; Table 7, single inhibitor
  % DIFFERENCE from SP54 (IC50, HGE): 0%
[2]
  in vitro biosynthesis of hyaluronic acid (HA): stimulates the biosynthesis of hyaluronic acid (HA)
[2]; hydrocortisone at 10^6 M (so in the source), drug at 0.25 ug/ml, FIG. 19, 21
  restoration of HA biosynthesis suppressed by hydrocortisone: almost, but not totally, restored to control value
[2]; hydrocortisone at 10^8 M (so in the source), drug 0.1-1.0 ug/ml, FIG. 20
  restoration of HA biosynthesis suppressed by hydrocortisone: fully restored synthesis to control values
[2]; in vitro
  prevention of the effects of hydrocortisone on synovial fibroblast biosynthesis of HA: could prevent the deleterious effects of hydrocortisone
